Laboratory results taken from PubChem BioAssay AID624076 (Broad Institute, 2012).
The source made the active and inactive calls. The rule behind the calls is not given here.

Test: PubChem AID 624076
Settings: Carna kinase panel, IMAP FP / mobility shift, at 10 µM, stronger effect = higher value

In the case of `COc1ccccc1[C@@H]1C2=C(CC(C)(C)CC2=O)Nc2n[nH]c(C(F)(F)F)c21`, the inhibition (ABL(E255K)) is reported as -4.01% (inactive), the inhibition (ABL(T315I)) is reported as 0.608% (inactive) and the inhibition (AKT2) is reported as 0.755% (inactive). The inhibition (AKT3) was 0.416% (inactive), the inhibition (ALK(L1196M)) was 2.33% (inactive) and the inhibition (ALK(R1275Q)) was 2.67% (inactive). For the same compound, the inhibition (ARG) was -1.1% (inactive), the inhibition (AXL) was 4.36% (inactive) and the inhibition (AurB) was 6.59% (inactive). For the same compound, the inhibition (AurC) was 6.9% (inactive), the inhibition (BRAF, cascade assay) was 10.8% (inactive) and the inhibition (BRK) was -0.572% (inactive). The inhibition (BRSK1) was 4.37% (inactive), the inhibition (BTK) was -2.3% (inactive) and the inhibition (CDK9/CycT1) was 20.5% (inactive). For the same compound, the inhibition (CHK2) was 6.76% (inactive), the inhibition (CK1e) was 0.145% (inactive) and the inhibition (CK1g1) was 0.48% (inactive). The inhibition (CK1g2) was 2.84% (inactive), the inhibition (CK2a2/b) was -4.08% (inactive) and the inhibition (CK1d) was -0.463% (inactive). The inhibition (CLK1) was 15.1% (inactive), the inhibition (CLK2) was 22.8% (inactive) and the inhibition (CLK3) was 5.11% (inactive). For the same compound, the inhibition (CRIK) was 0.502% (inactive), the inhibition (CaMK2b) was 2.08% (inactive) and the inhibition (CaMK4) was 2.19% (inactive). For the same compound, the inhibition (CaMK1d) was 0.058% (inactive), the inhibition (DAPK1) was 1.44% (inactive) and the inhibition (DCAMKL2) was 3.11% (inactive). The inhibition (DLK, cascade assay) was -3.03% (inactive), the inhibition (DYRK1A) was 13.9% (inactive) and the inhibition (DYRK1B) was 52.5%. For the same compound, the inhibition (DYRK2) was -4.58% (inactive), the inhibition (EGFR(L861Q)) was -0.865% (inactive) and the inhibition (EML4-ALK) was 1.03% (inactive). The inhibition (EPHA3) was -0.86% (inactive), the inhibition (EPHA5) was -0.402% (inactive) and the inhibition (EPHA8) was -3.88% (inactive). For the same compound, the inhibition (EPHB1) was 3.24% (inactive), the inhibition (EPHB4) was 2.47% (inactive) and the inhibition (FGFR1) was 4.17% (inactive). For the same compound, the inhibition (FGFR3(K650E)) was 2.8% (inactive), the inhibition (FGFR3(K650M)) was 1.1e-14% (inactive) and the inhibition (FGFR4(N535K)) was 0.356% (inactive). The inhibition (FGFR4(V550L)) was 4.09% (inactive), the inhibition (FGFR4) was 5.54% (inactive) and the inhibition (FLT4) was 9% (inactive). For the same compound, the inhibition (FMS) was -0.377% (inactive), the inhibition (GSK3a) was 101% and the inhibition (HER4) was -0.972% (inactive). For the same compound, the inhibition (HIPK1) was 8.84% (inactive), the inhibition (HIPK3) was 3.54% (inactive) and the inhibition (HIPK4) was 7.81% (inactive). For the same compound, the inhibition (Haspin) was -1.27% (inactive), the inhibition (IGF1R) was -2.57% (inactive) and the inhibition (IKKb) was -2.12% (inactive). For the same compound, the inhibition (IRAK4) was -2.34% (inactive), the inhibition (IRR) was -1.56% (inactive) and the inhibition (JAK2) was -0.539% (inactive). The inhibition (JAK3) was 8.04% (inactive), the inhibition (JNK1) was -1.99% (inactive) and the inhibition (JNK2) was 3.84% (inactive). The inhibition (JNK3) was 2.16% (inactive), the inhibition (KIT(T670I)) was 8.36% (inactive) and the inhibition (KIT(V560G)) was 3.59% (inactive). The inhibition (KIT) was 6.69% (inactive), the inhibition (LATS2) was 3.09% (inactive) and the inhibition (LOK) was 8.66% (inactive). The inhibition (LTK) was 11.1% (inactive), the inhibition (LYNa) was 15.1% (inactive) and the inhibition (MAP2K3, cascade assay) was 6.17% (inactive). The inhibition (MAP2K4, cascade assay) was 0.115% (inactive), the inhibition (MAP3K4, cascade assay) was 7.41% (inactive) and the inhibition (MAP3K5, cascade assay) was 14.4% (inactive). For the same compound, the inhibition (MAP4K2) was 7.36% (inactive), the inhibition (MARK2) was 39.1% (inactive) and the inhibition (MARK4) was 48.6% (inactive). The inhibition (MELK) was 7.87% (inactive), the inhibition (MER) was 8.36% (inactive) and the inhibition (MGC42105) was 0.183% (inactive). The inhibition (MINK) was -2.54% (inactive), the inhibition (MLK1, cascade assay) was 17.6% (inactive) and the inhibition (MLK2, cascade assay) was 4.73% (inactive). For the same compound, the inhibition (MLK3, cascade assay) was 1.88% (inactive), the inhibition (MSK1) was 3.83% (inactive) and the inhibition (MST2) was -3.85% (inactive). The inhibition (MST4) was -1.67% (inactive), the inhibition (NDR1) was -0.193% (inactive) and the inhibition (NEK1) was 0.375% (inactive). For the same compound, the inhibition (NEK2) was 0.761% (inactive), the inhibition (NEK6) was 3.82% (inactive) and the inhibition (NEK7) was -4.5% (inactive). For the same compound, the inhibition (PAK3) was 33.4% (inactive), the inhibition (PAK4) was 17.6% (inactive) and the inhibition (PAK5) was 14.9% (inactive). The inhibition (PASK) was 3.87% (inactive), the inhibition (PBK) was 0.885% (inactive) and the inhibition (PDGFRa(V561D)) was 2.12% (inactive). The inhibition (PEK) was -3.83% (inactive), the inhibition (PGK) was 0.119% (inactive) and the inhibition (PHKG1) was 5.52% (inactive). For the same compound, the inhibition (PIK3CA/PIK3R1) was -2.01% (inactive), the inhibition (PIM2) was 0.406% (inactive) and the inhibition (PIM3) was 8.57% (inactive). The inhibition (PKACg) was 1.21% (inactive), the inhibition (PKCa) was 4.41% (inactive) and the inhibition (PKCb2) was 9.38% (inactive). For the same compound, the inhibition (PKCd) was 8.65% (inactive), the inhibition (PKCg) was 5.54% (inactive) and the inhibition (PKD1) was -0.973% (inactive). For the same compound, the inhibition (PKD2) was 0.969% (inactive), the inhibition (PKD3) was 5.41% (inactive) and the inhibition (PKN1) was 23.4% (inactive). For the same compound, the inhibition (PLK1) was 0.912% (inactive), the inhibition (PRKX) was -1.49% (inactive) and the inhibition (RET(S891A)) was 16.1% (inactive). For the same compound, the inhibition (RET(Y791F)) was 2.31% (inactive), the inhibition (ROCK1) was 6.72% (inactive) and the inhibition (ROCK2) was 2.67% (inactive). For the same compound, the inhibition (ROS) was 82.7%, the inhibition (RSK1) was 8.92% (inactive) and the inhibition (RSK2) was 10.7% (inactive). For the same compound, the inhibition (RSK4) was 10.3% (inactive), the inhibition (SGK3) was 0.498% (inactive) and the inhibition (SIK) was 3.03% (inactive). For the same compound, the inhibition (SLK) was 10.4% (inactive), the inhibition (SRC) was 4% (inactive) and the inhibition (SRM) was -2.09% (inactive). For the same compound, the inhibition (SRPK1) was 13.7% (inactive), the inhibition (SYK) was -0.473% (inactive) and the inhibition (TAK1-TAB1, cascade assay) was 3.32% (inactive). For the same compound, the inhibition (TIE2) was 4.15% (inactive), the inhibition (TNK1) was 3.87% (inactive) and the inhibition (TRKA) was 54.8%. For the same compound, the inhibition (TSSK3) was 0% (inactive), the inhibition (TYK2) was -1.6% (inactive) and the inhibition (WNK2) was -0.427% (inactive). The inhibition (p38a) was 1.28% (inactive) and the inhibition (p38d) was 15.7% (inactive).
